# Source: ChEMBL document CHEMBL2375234, “Rhazinilam-Leuconolam-Leuconoxine Alkaloids from Leuconotis griffithii” (J Nat Prod, 2013)
# Legend:
# [1] = Inhibition of p-gp in multidrug-resistant human KB cells assessed as increase in vincristine-mediated cytotoxicity; assay type: cell-based
# KB = test: Cytotoxicity against human KB cells; assay type: functional, cell-based
structure (smiles),measurement,setting,value
CC[C@@]12CCCN3CC[C@@]4(O)c5ccccc5N(C(=O)CC1)C324 (some centres undefined),IC50,[1],9.34 µg/mL
CC[C@@]12CCCN3CC[C@H]4c5ccccc5N(C(=O)CC1)C432 (some centres undefined),IC50,KB,12 µg/mL
CC[C@@]12CCCN3C(=O)C[C@@]4(O)c5ccccc5N(C(=O)CC1)C324 (some centres undefined),IC50,KB,12 µg/mL
CC[C@@]12CCC(=O)Nc3ccccc3-c3ccn(c31)C(=O)C2 [NOR-RHAZINICINE],IC50,KB,12 µg/mL
